The values that follow come from publication PMC9421654, “Discovery of Substituted Di(pyridin-2-yl)-1,2,4-thiadiazol-5-amines as Novel Macrofilaricidal Compounds for the Treatment of Human Filarial Infections” (Journal of Medicinal Chemistry, 2022).

For data set [1], the target named is CYP2C9 (Homo sapiens, UniProt P11712). Kind of data set: Cytochrome P450 inhibition, 2C9. In kind it is in vitro ADME. The settings on record: read-out: Cytochrome P450s IC50, 2C9.
Data set [2] addresses T1, hERG (Homo sapiens, UniProt Q12809).
T1 construct: expressed in transfected cells
Kind of data set: hERG inhibition. The data set is classed as cell-based. As to conditions: human. On the technique in general: hERG is a cardiac potassium channel; its block is linked to QT prolongation.

Data set [3] deals with T2, CYP1A2 (Homo sapiens, UniProt P05177).
T2 sequence (P05177 1-516): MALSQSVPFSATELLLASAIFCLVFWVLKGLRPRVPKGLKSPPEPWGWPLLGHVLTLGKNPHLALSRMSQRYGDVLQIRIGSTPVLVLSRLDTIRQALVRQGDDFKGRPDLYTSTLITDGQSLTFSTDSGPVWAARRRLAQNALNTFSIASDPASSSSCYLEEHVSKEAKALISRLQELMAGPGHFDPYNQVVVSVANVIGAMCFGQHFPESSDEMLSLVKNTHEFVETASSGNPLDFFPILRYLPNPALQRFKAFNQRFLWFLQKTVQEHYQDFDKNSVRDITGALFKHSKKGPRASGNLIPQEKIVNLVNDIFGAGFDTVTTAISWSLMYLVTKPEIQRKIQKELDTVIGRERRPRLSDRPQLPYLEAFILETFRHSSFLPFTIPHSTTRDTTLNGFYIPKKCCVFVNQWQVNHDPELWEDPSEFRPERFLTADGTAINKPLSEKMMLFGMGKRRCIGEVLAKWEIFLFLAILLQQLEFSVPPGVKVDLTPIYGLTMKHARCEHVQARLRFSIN
Kind of data set: Cytochrome P450 inhibition, 1A2. The data set is classed as in vitro ADME. The settings on record: read-out: Cytochrome P450s IC50, 1A2.

For data set [4], the target named is CYP3A4 (Homo sapiens, UniProt P08684). Kind of data set: Cytochrome P450 inhibition, 3A4. The data set is classed as in vitro ADME. The settings on record: read-out: Cytochrome P450s IC50, 3A4.
Data set [5] can be described thus: THLE-2 cytotoxicity assay (ATP). The settings on record: human. The procedure, abridged:
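THLE-2 cells in supplemented LHC-8 medium were exposed for 24 or 72 h to final concentrations of 0.01–300 μM. Viability was read as ATP by CellTiter-Glo luminescence and normalized to DMSO vehicle. IC50 came from nonlinear regression of dose-response curves.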

Data set [6] in a line: Rat pharmacokinetics. The settings on record: in vivo. From the text: Table S1. Compound 31cross species PK data.
Data set [7] is described as follows: Exploratory toxicological evaluation in vivo. The source says:
Showing no in vitro safety concerns (Table 7), it was progressed into in vivo safety evaluation studies. […] Since the mechanism of action of this series of compounds is not known, the best approach was to design analogs that would limit exposure within the brain.

A short description of data set [8]: Plasma protein binding, rat. The data set is classed as in vitro ADME. The settings on record: read-out: Plasma Protein Binding %, r (converted).
In data set [9] the target is CYP2C19 (Homo sapiens, UniProt P33261). Nature of the data set: Cytochrome P450 inhibition, 2C19. In kind it is in vitro ADME. The settings on record: read-out: Cytochrome P450s IC50, 2C19.
Data set [10] in a line: in vivo. The settings on record: dog. The source says:
IV formulation vehicle for rat: 15% DMA / 50%PEG / 35% D5W; for dog: 5% DMA /
PO formulation vehicle for mouse and rat: a suspension in 0.5% CMC / 0.25% Tween80, as a
suspension; for dog: a suspension in 0.5% methyl cellulose / 0.25% Tween80

Data set [11] concerns the target T3, CYP2C8 (Homo sapiens, UniProt P10632).
T3 sequence (P10632 1-490): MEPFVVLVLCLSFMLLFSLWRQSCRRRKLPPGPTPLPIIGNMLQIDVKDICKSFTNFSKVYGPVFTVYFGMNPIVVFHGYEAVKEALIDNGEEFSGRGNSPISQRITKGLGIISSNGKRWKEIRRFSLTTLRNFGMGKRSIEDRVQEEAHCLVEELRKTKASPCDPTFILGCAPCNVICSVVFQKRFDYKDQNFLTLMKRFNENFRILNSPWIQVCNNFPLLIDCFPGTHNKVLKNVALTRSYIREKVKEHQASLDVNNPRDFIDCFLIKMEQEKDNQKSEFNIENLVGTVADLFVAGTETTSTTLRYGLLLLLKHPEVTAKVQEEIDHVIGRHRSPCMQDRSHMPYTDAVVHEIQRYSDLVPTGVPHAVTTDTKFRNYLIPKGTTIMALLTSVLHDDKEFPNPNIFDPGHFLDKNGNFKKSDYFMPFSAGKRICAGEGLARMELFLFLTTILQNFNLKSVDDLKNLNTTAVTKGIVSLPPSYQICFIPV
Kind of data set: Cytochrome P450 inhibition, 2C8. The settings on record: read-out: Cytochrome P450s IC50, 2C8. The data set is classed as in vitro ADME.

Data set [12] addresses T4, P-gp (MDR1) (Homo sapiens, UniProt P08183).
T4 construct: expressed in transfected cells; host or cells: MDCK (Madin Darby canine kidney) cells
Kind of data set: MDCK/MDR1 permeability and efflux. As to conditions: dog. In kind it is in vitro ADME. The source says:
Our approach was to target compounds with efflux ratio (ER) >2.5 in the MDCK cell line transfected with MDR1 (multidrug resistance-1 transfected Madin Darby canine kidney cell line). […] Our goal was to impart structural elements designed to impart Pgp recognition.

A short description of data set [13]: in vitro. As to conditions: human, Caco-2.
In data set [14] the test system is TK6 cells. Kind of data set: Micronucleus test. In kind it is cell-based. As to conditions: presence and absence of rat liver S9.

A value given as a limit tells only on which side of the number the result lay.

T4 sequence (P08183 whole entry): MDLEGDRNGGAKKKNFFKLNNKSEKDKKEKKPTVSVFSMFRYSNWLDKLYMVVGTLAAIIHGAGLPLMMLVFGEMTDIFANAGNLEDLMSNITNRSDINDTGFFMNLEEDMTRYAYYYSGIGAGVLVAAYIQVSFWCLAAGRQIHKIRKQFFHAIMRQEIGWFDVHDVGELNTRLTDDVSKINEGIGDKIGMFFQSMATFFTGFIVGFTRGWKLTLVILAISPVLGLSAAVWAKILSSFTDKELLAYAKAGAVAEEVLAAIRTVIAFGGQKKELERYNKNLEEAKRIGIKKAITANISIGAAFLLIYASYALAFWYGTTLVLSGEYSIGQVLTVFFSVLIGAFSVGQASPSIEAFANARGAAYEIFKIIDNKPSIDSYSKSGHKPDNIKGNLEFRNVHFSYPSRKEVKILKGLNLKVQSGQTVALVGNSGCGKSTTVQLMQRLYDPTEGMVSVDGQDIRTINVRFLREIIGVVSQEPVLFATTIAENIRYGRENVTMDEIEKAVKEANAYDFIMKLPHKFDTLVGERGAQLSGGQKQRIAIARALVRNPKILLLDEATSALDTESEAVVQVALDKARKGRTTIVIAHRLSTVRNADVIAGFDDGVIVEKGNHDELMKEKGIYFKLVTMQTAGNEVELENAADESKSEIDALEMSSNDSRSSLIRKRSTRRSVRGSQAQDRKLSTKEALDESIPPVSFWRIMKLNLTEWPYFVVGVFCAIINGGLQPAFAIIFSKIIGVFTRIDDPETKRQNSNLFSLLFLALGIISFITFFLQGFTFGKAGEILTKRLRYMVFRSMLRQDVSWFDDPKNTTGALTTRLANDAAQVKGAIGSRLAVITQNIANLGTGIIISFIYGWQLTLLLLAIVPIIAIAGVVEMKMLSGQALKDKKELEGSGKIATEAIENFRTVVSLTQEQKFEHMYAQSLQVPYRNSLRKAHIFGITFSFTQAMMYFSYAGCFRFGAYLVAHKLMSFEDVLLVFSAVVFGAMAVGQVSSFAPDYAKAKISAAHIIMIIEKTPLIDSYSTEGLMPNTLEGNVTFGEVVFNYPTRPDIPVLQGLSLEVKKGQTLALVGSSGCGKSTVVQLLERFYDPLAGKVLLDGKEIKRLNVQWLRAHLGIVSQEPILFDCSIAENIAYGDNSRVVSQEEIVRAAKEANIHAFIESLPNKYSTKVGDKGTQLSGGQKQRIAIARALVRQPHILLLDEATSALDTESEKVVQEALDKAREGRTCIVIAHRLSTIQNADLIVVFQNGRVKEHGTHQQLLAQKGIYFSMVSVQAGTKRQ
CYP2C9, sequence (P11712 whole entry): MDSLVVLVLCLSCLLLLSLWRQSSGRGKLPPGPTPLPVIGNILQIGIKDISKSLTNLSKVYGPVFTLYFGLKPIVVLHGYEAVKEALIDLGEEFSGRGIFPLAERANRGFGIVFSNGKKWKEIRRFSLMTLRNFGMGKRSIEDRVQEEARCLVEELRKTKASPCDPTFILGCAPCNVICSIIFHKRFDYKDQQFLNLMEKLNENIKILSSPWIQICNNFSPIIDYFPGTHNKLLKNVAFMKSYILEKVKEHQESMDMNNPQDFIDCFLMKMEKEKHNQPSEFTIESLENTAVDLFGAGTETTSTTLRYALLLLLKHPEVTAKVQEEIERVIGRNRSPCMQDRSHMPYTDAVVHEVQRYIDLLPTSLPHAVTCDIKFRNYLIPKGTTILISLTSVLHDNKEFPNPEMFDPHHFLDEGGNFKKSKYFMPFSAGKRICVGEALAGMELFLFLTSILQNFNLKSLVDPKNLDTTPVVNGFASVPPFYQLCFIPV
CYP2C19, sequence (P33261 whole entry): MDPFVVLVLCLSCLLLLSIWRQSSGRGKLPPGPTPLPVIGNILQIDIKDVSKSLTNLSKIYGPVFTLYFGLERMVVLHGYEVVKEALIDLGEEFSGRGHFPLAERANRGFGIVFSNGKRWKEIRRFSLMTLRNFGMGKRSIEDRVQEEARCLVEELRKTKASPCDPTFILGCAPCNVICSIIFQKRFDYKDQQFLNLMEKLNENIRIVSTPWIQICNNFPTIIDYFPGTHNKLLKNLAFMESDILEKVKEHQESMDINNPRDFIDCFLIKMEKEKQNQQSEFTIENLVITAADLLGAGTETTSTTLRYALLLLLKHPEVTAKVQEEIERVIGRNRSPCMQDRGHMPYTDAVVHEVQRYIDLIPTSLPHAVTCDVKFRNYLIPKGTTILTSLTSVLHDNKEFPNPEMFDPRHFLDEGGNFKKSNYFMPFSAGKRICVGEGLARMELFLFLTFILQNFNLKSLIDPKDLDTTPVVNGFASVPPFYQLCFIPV
T1 sequence (Q12809 whole entry): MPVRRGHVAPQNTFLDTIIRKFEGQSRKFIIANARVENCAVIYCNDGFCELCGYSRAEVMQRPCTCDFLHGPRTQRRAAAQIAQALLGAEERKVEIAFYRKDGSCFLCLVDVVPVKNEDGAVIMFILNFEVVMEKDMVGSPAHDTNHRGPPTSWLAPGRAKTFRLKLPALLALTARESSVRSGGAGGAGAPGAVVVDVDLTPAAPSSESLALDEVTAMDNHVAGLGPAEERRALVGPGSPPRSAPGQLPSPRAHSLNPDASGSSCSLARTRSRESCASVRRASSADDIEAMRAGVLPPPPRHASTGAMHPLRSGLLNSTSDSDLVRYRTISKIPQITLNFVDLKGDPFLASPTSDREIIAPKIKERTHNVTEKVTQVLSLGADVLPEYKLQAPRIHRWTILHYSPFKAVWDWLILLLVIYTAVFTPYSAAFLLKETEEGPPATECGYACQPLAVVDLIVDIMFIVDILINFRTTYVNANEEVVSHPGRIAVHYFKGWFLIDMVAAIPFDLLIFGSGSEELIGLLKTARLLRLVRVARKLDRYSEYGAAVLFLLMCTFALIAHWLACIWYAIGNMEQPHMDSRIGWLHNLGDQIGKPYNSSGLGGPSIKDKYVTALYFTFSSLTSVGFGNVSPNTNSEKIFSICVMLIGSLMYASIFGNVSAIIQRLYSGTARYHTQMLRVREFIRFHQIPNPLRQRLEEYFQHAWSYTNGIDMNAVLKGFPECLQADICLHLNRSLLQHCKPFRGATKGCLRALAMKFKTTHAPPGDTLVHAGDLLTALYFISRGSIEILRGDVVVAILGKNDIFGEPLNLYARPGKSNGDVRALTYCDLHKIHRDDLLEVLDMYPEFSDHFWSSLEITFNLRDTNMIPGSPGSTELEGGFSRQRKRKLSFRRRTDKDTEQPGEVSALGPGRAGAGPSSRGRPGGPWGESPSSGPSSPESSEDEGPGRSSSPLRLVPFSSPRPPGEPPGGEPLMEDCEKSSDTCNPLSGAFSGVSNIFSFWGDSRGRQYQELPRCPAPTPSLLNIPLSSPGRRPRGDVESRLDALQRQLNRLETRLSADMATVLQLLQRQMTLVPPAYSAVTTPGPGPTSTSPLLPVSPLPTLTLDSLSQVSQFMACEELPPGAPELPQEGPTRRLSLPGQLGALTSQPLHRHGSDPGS
CYP3A4, sequence (P08684 whole entry): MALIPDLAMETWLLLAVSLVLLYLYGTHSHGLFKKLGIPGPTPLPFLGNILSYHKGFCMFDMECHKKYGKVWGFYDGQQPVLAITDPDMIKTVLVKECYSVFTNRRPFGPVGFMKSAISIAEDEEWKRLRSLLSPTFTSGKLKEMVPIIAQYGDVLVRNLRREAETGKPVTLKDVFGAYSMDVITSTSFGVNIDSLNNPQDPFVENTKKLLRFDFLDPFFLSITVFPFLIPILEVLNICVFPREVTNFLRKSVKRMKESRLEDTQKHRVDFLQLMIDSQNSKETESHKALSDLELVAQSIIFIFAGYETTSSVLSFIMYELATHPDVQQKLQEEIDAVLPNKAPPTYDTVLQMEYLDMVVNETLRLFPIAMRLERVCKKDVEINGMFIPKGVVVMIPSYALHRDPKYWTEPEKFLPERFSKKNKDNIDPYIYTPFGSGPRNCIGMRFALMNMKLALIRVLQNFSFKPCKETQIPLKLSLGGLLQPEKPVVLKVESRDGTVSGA

Usually IC50 stands for the point on the concentration scale where inhibition reaches its midpoint. For orientation: CC50 means the concentration that lowers cell viability or growth by half. A lower CC50 goes with harm at low concentration. The term clearance denotes a measure of how efficiently the substance is removed, as volume per time. The low end stands for inefficient removal, the high end for efficient removal. In general, AUC(0-inf) refers to total exposure, with the tail of the curve extrapolated. The low end stands for low exposure, the high end for high exposure. A word on the Cmax: it is the maximum level reached in the sampled fluid or tissue. As usually defined, the Tmax is the time from dosing to the highest level. As a reminder, the bioavailability is dose-corrected exposure relative to a reference, in per cent. Low readings indicate little systemic uptake, high ones much systemic uptake. Take `CC(C)Oc1ccc(-c2nsc(Nc3ncccc3N(C)C)n2)nc1` [Compound 31, N^2-(3-(5-Isopropoxypyridin-2-yl)-1,2,4-thiadiazol-5-yl)-N3,N3-dimethylpyridine-2,3-diamine]: the IC50 in data set [1] was 5.5 µM; in [2], 11.4 µM; in data set [3] it was above 30 µM; in data set [4] it was 22 µM; in data set [9], 20 µM; in data set [11], 7.1 µM. This molecule had a CC50 in [5] of 36 µM. Besides, the clearance amounted to 8.22 ± 2.72 mL/min/kg in data set [6] (iv, i.v. 2 mg/kg, mean ±SD) and 18.8 ± 2.7 mL/min/kg in [10] (iv, 2 mg/kg). In addition, the Vd in data set [6] (iv, i.v. 2 mg/kg, read-out: Vss) is 2.07 ± 0.92 L/kg; in [10] (iv, 2 mg/kg), 3.08 ± 0.03 L/kg. Further, the AUC(0-inf) stood at 38.1 ± 5.1 µM·h in [6] (po, p.o. 10 mg/kg) and 4.02 ± 1.03 µM·h in data set [10] (po, 3 mg/kg). The Cmax in [6] (po, p.o. 10 mg/kg) was determined as 6.28 ± 0.9 µM; in data set [10] (po, 3 mg/kg), 1.41 ± 0.53 µM. The Tmax in data set [6] (po, p.o. 10 mg/kg) was found to be 2 h; in data set [10] (po, 3 mg/kg) it was 1.2 ± 0.8 h. Further, the bioavailability in data set [6] (po, p.o. 10 mg/kg) came to 63 ± 20%; in data set [10] (po, 3 mg/kg), 55 ± 21%. For the same molecule, in [7], the “exploratory toxicological evaluation, observations” value is given as “CNS (central nervous system)-related observations were noted”. Moreover, the fraction unbound in data set [8] was below 0.01.

Usually Papp A→B stands for how fast a substance crosses the layer from the apical side. In data set [12], `CC(C)Oc1ccc(-c2nsc(Nc3ncccc3N(C)C(=O)C3CC3)n2)nc1` [Compound 50, N-(2-((3-(5-Isopropoxypyridin-2-yl)-1,2,4-thiadiazol-5-yl)amino)pyridin-3-yl)-N-methylcyclopropanecarboxamide] had a Papp A→B of 19.3 ×10⁻⁶ cm/s.

Usually efflux ratio stands for a quotient of directional permeabilities that is used to spot active efflux. Turning to `Cc1cccnc1Nc1nc(-c2ccc(OC3CCN(C4CC4)CC3)cn2)ns1` [Compound 19, 3-[5-[(1-Cyclopropyl-4-piperidyl)oxy]-2-pyridyl]-N-(3-methyl-2-pyridyl)-1,2,4-thiadiazol-5-amine], in data set [13], the efflux ratio was 0.9.

Molecule `CC(=O)N(C)c1cccnc1Nc1nc(-c2ccc(OC(C)C)cn2)ns1` [Compound 47, N-(2-((3-(5-Isopropoxypyridin-2-yl)-1,2,4-thiadiazol-5-yl)amino)pyridin-3-yl)-N-methylacetamide] returned a Papp A→B in data set [12] of 3.9 ×10⁻⁶ cm/s. Further, the IC50 in [1] is 5.7 µM; in data set [2], above 30 µM; in [3], above 30 µM; in data set [4] it was above 30 µM; in data set [9], 29 µM; in data set [11] it was above 30 µM. Further, the micronucleus entry in [14] is given as “negative”. Also, half-maximal cytotoxicity in data set [5] (CC50) was put at 106 µM. Moreover, in data set [8], the fraction unbound was 0.05.
